Measured values reported in patent US20170050957A1, “4-AMINO-6-(HETEROCYCLIC)PICOLINATES AND 6-AMINO-2-(HETEROCYCLIC)PYRIMIDINE-4-CARBOXYLATES AND THEIR USE AS HERBICIDES” (Dow AgroSciences LLC, priority 2013, published 2017).
Read-outs that look alike come from different tables or passages of the source.

Key:
[1] = test system: Key Broadleaf Weed and Crop Species; assay: Post-emergent Test II herbicidal activity (Table 15); type: in vivo; conditions: post-emergence, 336 h, 14 d; for pest or weed control at 35 g/ha: 35 g ai/ha; for pest or weed control at 70 g/ha: 70 g ai/ha; for pest or weed control at 140 g/ha: 140 g ai/ha
Procedure, shortened: (§1)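 Herbicidal effect scored as percent visual injury, 14 d after post-emergent application. Spray solutions contained acetone, DMSO, isopropyl alcohol, crop oil concentrate and surfactant, applied at 187 L/ha to young plants (1-2 true leaves).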

[2] = test system: Key Grass and Sedge Weeds as well as Grass Crops; assay: Post-emergent Test II herbicidal activity (Table 16); type: in vivo; conditions: post-emergence, 336 h, 14 days after application; for pest or weed control at 35 g/ha: 35 g ai/ha; for pest or weed control at 70 g/ha: 70 g ai/ha; for pest or weed control at 140 g/ha: 140 g ai/ha
Procedure, shortened: as §1

[3] = Abutilon theophrasti, velvetleaf (Abutilon theophrasti), read-out: Visual Growth Reduction (%) 14 Days After Application, ABUTH
[4] = Amaranthus retroflexus, redroot pigweed (Amaranthus retroflexus), read-out: Visual Growth Reduction (%) 14 Days After Application, AMARE
[5] = Brassica napus, oilseed rape, canola (Brassica napus), read-out: Visual Growth Reduction (%) 14 Days After Application, BRSNN
[6] = Chenopodium album, lambsquarters (Chenopodium album), read-out: Visual Growth Reduction (%) 14 Days After Application, CHEAL
[7] = Euphorbia heterophylla, wild poinsettia (Euphorbia heterophylla), read-out: Visual Growth Reduction (%) 14 Days After Application, EPHHL
[8] = Helianthus annuus, sunflower (Helianthus annuus), read-out: Visual Growth Reduction (%) 14 Days After Application, HELAN
[9] = Cyperus esculentus, yellow nutsedge (Cyperus esculentus), read-out: Visual Growth Reduction (%) 14 Days After Application CYPES
[10] = Echinochloa crus-galli, barnyardgrass (Echinochloa crus-galli), read-out: Visual Growth Reduction (%) 14 Days After Application ECHCG
[11] = Oryza sativa, rice (Oryza sativa), read-out: Visual Growth Reduction (%) 14 Days After Application ORYSA
[12] = Setaria faberi, giant foxtail (Setaria faberi), read-out: Visual Growth Reduction (%) 14 Days After Application SETFA
[13] = Triticum aestivum, wheat, spring (Triticum aestivum), read-out: Visual Growth Reduction (%) 14 Days After Application TRZAS
[14] = Zea mays, maize, corn (Zea mays), read-out: Visual Growth Reduction (%) 14 Days After Application ZEAMX

COC(=O)c1nc(-c2ccc3cn[nH]c3c2)cc(N)c1Cl [Compound 4.09]
85 to 94%: pest or weed control at 140 g/ha [1, 4] | pest or weed control at 140 g/ha [1, 6]
60 to 74%: pest or weed control at 140 g/ha [1, 5]
0 to 29%: pest or weed control at 35 g/ha [1, 3] | pest or weed control at 70 g/ha [1, 3] | pest or weed control at 140 g/ha [1, 3] | pest or weed control at 35 g/ha [1, 4] | pest or weed control at 35 g/ha [1, 5] | pest or weed control at 70 g/ha [1, 5] | pest or weed control at 35 g/ha [1, 7] | pest or weed control at 70 g/ha [1, 7] | pest or weed control at 140 g/ha [1, 7] | pest or weed control at 35 g/ha [1, 8] | pest or weed control at 35 g/ha [2, 9] | pest or weed control at 70 g/ha [2, 9] | pest or weed control at 140 g/ha [2, 9] | pest or weed control at 35 g/ha [2, 10] | pest or weed control at 70 g/ha [2, 10] | pest or weed control at 140 g/ha [2, 10] | pest or weed control at 35 g/ha [2, 11] | pest or weed control at 70 g/ha [2, 11] | pest or weed control at 140 g/ha [2, 11] | pest or weed control at 35 g/ha [2, 12] | pest or weed control at 70 g/ha [2, 12] | pest or weed control at 140 g/ha [2, 12] | pest or weed control at 35 g/ha [2, 13] | pest or weed control at 70 g/ha [2, 13] | pest or weed control at 140 g/ha [2, 13] | pest or weed control at 35 g/ha [2, 14] | pest or weed control at 70 g/ha [2, 14] | pest or weed control at 140 g/ha [2, 14]
30 to 44%: pest or weed control at 70 g/ha [1, 8]
191 to 193 °C: melting point
45 to 59%: pest or weed control at 70 g/ha [1, 4] | pest or weed control at 35 g/ha [1, 6] | pest or weed control at 140 g/ha [1, 8]
75 to 84%: pest or weed control at 70 g/ha [1, 6]
